Laboratory results taken from PubChem BioAssay AID248 (DTP/NCI, 2004).
“And” between values parts separate entries of the source, which are not always exact repeats. Equal entries are not always repeated. Toxic doses and inconclusive results are not listed. No stated cut-off is given here; in the data, active means T/C of 150% or more; inactive means T/C below 125%. Square brackets hold non-standard residues; d marks the D form. Peptide text beside a SMILES is read from it. * marks the point of attachment. ξ: configuration not given here. Cbz = O=C(OCc1ccccc1)*; ξNva = CCCC(N)C(=O)O

Test system: L1210 leukemia ip in BDF1 mice, survival T/C
Assay: NCI In Vivo Anticancer Drug Screen. Data for tumor model L1210 Leukemia (intraperitoneal) in B6D2F1 (BDF1) mice
Details: endpoint: mean survival time, higher = longer survival
Method in brief: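 Value reflects the ratio of survival in compound-treated mice to survival in vehicle-treated controls, with both groups carrying the same transplanted tumor.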

[1] = dose: 100.0 mg/kg/injection, schedule: Q01DX009 (ip), vehicle: saline with Tween-80
[2] = dose: 100.0 mg/kg/injection, schedule: Q04DX003 (ip), vehicle: saline with Tween-80
[3] = dose: 200.0 mg/kg/injection, schedule: Q01DX009 (ip), vehicle: saline with Tween-80
[4] = dose: 200.0 mg/kg/injection, schedule: Q04DX003 (ip), vehicle: saline with Tween-80
[5] = dose: 400.0 mg/kg/injection, schedule: Q01DX009 (ip), vehicle: saline with Tween-80
[6] = dose: 400.0 mg/kg/injection, schedule: Q04DX003 (ip), vehicle: saline with Tween-80
[7] = dose: 100.0 mg/kg/injection, schedule: Q01DX009 (ip), vehicle: Klucel (hydroxypropylcellulose) (HPC)
[8] = dose: 200.0 mg/kg/injection, schedule: Q01DX009 (ip), vehicle: Klucel (hydroxypropylcellulose) (HPC)
[9] = dose: 100.0 mg/kg/injection, schedule: Q01DX009 (ip), vehicle: saline
[10] = dose: 200.0 mg/kg/injection, schedule: Q01DX009 (ip), vehicle: saline
[11] = dose: 400.0 mg/kg/injection, schedule: Q01DX009 (ip), vehicle: saline
[12] = dose: 100.0 mg/kg/injection, schedule: Q01DX001 (ip), vehicle: saline
[13] = dose: 200.0 mg/kg/injection, schedule: Q01DX001 (ip), vehicle: saline
[14] = dose: 400.0 mg/kg/injection, schedule: Q01DX001 (ip), vehicle: saline
[15] = dose: 100.0 mg/kg/injection, schedule: Q04DX003 (ip), vehicle: gum acacia
[16] = dose: 200.0 mg/kg/injection, schedule: Q04DX003 (ip), vehicle: gum acacia
[17] = dose: 400.0 mg/kg/injection, schedule: Q04DX003 (ip), vehicle: gum acacia
[18] = dose: 100.0 mg/kg/injection, schedule: Q04DX003 (ip), vehicle: Klucel (hydroxypropylcellulose) (HPC)
[19] = dose: 200.0 mg/kg/injection, schedule: Q04DX003 (ip), vehicle: Klucel (hydroxypropylcellulose) (HPC)
[20] = dose: 400.0 mg/kg/injection, schedule: Q04DX003 (ip), vehicle: Klucel (hydroxypropylcellulose) (HPC)
[21] = dose: 100.0 mg/kg/injection, schedule: Q01DX001 (ip), vehicle: other
[22] = dose: 200.0 mg/kg/injection, schedule: Q01DX001 (ip), vehicle: other
[23] = dose: 400.0 mg/kg/injection, schedule: Q01DX001 (ip), vehicle: other
[24] = dose: 50.0 mg/kg/injection, schedule: Q01DX009 (ip), vehicle: Klucel (hydroxypropylcellulose) (HPC)

Measured: T/C

Cc1ccccc1C(=O)NCC(=O)O
inactive: [1] 91 % of control | [2] 95 % of control | [3] 91 % of control | [4] 94 % of control | [5] 86 % of control | [6] 98 % of control

O=C(O)/C=C/C(=O)Nc1ccc([N+](=O)[O-])c(C(F)(F)F)c1
inactive: [7] 107 % of control | [8] 112 % of control

CCOC(=O)C(C)C1(O)CCCCC1 (configuration not stated)
inactive: [9] 98 % of control | [10] 95 % of control | [11] 98 % of control

COC(=O)c1ccnc(C(=O)OC)c1
inactive: dose: 100.0 mg/kg/injection, schedule: Q01DX001 (ip), vehicle: saline sonified 98 % of control | [9] 95 % of control | dose: 200.0 mg/kg/injection, schedule: Q01DX001 (ip), vehicle: saline sonified 103 % of control | [10] 95 % of control | dose: 400.0 mg/kg/injection, schedule: Q01DX001 (ip), vehicle: saline sonified 98 % of control | [11] 93 % of control

CCOC(=O)n1cnc2nc(N)nc(SC)c21
inactive: dose: 50.0 mg/kg/injection, schedule: Q01DX001 (ip), vehicle: saline 103 % of control | [12] 97 % of control | [13] 100 % of control | [14] 122 % of control

c1ccc(C23c4ccccc4C2c2ccccc23)nc1 (configuration not stated)
inactive: dose: 12.5 mg/kg/injection, schedule: Q01DX009 (ip), vehicle: gum acacia 104 % of control | dose: 25.0 mg/kg/injection, schedule: Q01DX009 (ip), vehicle: gum acacia 100 % of control | dose: 50.0 mg/kg/injection, schedule: Q01DX009 (ip), vehicle: gum acacia 100 % of control | [15] 97 % of control | [16] 97 % of control | [17] 104 % of control

CCCCCCCCCCC(N)P(=O)(O)O (configuration not stated)
inactive: dose: 12.5 mg/kg/injection, schedule: Q01DX009 (ip), vehicle: saline with Tween-80 103 % of control | dose: 25.0 mg/kg/injection, schedule: Q01DX009 (ip), vehicle: saline with Tween-80 101 % of control | dose: 50.0 mg/kg/injection, schedule: Q01DX009 (ip), vehicle: saline with Tween-80 105 % of control | dose: 300.0 mg/kg/injection, schedule: Q01DX001 (ip), vehicle: saline 98 % of control

Cc1cc(Cl)ccc1NC(=O)Nc1ccccc1
inactive: dose: 100.0 mg/kg/injection, schedule: Q01DX009 (ip), vehicle: gum acacia 87 % of control | [15] 87 % of control | dose: 200.0 mg/kg/injection, schedule: Q01DX009 (ip), vehicle: gum acacia 89 % of control | [16] 89 % of control | dose: 400.0 mg/kg/injection, schedule: Q01DX009 (ip), vehicle: gum acacia 87 % of control | [17] 90 % of control

C1CC23CSCC12CSC3 (configuration not stated)
inactive: [12] 103 % of control | [13] 111 % of control | [14] 108 % of control

CCCC(NC(=O)CNC(=O)CNC(=O)OCc1ccccc1)C(=O)O (stereo not drawn) (Cbz-Gly-Gly-[ξNva]-OH)
inactive: [18] 101 % of control | [19] 106 % of control | [20] 106 % of control

CNS(=O)(=O)c1ccccc1C=C(c1ccccc1)c1ccccc1
inactive: dose: 100.0 mg/kg/injection, schedule: Q01DX001 (ip), vehicle: steriod suspending solution 92 % of control | dose: 200.0 mg/kg/injection, schedule: Q01DX001 (ip), vehicle: steriod suspending solution 114 % of control | dose: 400.0 mg/kg/injection, schedule: Q01DX001 (ip), vehicle: steriod suspending solution 102 % of control

CCCCCCCCCCCCC/C=C\CC(CC(=O)O)C(=O)Nc1cccc2cnccc12 (configuration not stated)
inactive: [18] 97 % of control | [19] 103 % of control | [20] 97 % of control

CCCCCCCCCCCCCCCCCC(=O)N1C(=O)c2ccccc2C1=O
inactive: [21] 87 % of control | [22] 88 % of control | [23] 92 % of control

C=C(C)COC(N)=O
inactive: [1] 95 % of control | [2] 102 % of control | [3] 96 % of control | [4] 102 % of control | [5] 91 % of control | [6] 103 % of control

CCCOc1ccc(-c2nc(-c3ccc(N=Cc4ccc(N(CCOS(C)(=O)=O)CCOS(C)(=O)=O)cc4C)cc3)cs2)cc1
inactive: dose: 25.0 mg/kg/injection, schedule: Q01DX009 (ip), vehicle: Klucel (hydroxypropylcellulose) (HPC) 114 % of control | [24] 109 % of control | dose: 75.0 mg/kg/injection, schedule: Q01DX009 (ip), vehicle: Klucel (hydroxypropylcellulose) (HPC) 106 % of control | [7] 94 % of control

NC(N)=Nc1ccc(C(=O)Oc2ccc([N+](=O)[O-])cc2[N+](=O)[O-])cc1
inactive: dose: 25.0 mg/kg/injection, schedule: Q04DX003 (ip), vehicle: Klucel (hydroxypropylcellulose) (HPC) 96 % of control | [24] 94 % of control | dose: 50.0 mg/kg/injection, schedule: Q04DX003 (ip), vehicle: Klucel (hydroxypropylcellulose) (HPC) 98 % of control | [7] 94 % of control | [18] 91 % of control

Oc1ccc(CNCCNCCNCc2ccc(O)cc2)cc1
inactive: dose: 12.5 mg/kg/injection, schedule: Q01DX009 (ip), vehicle: saline 87 % of control | dose: 25.0 mg/kg/injection, schedule: Q01DX009 (ip), vehicle: saline 102 % of control | dose: 25.0 mg/kg/injection, schedule: Q04DX003 (ip), vehicle: saline 110 % of control | dose: 50.0 mg/kg/injection, schedule: Q01DX009 (ip), vehicle: saline 93 % of control | dose: 50.0 mg/kg/injection, schedule: Q04DX003 (ip), vehicle: saline 95 % of control | [9] 102 % of control and 92 % of control | dose: 100.0 mg/kg/injection, schedule: Q04DX003 (ip), vehicle: saline 98 % of control and 92 % of control | [10] 105 % of control

CN1C(c2ccccc2)NC(=O)C12CCN(CCCC(=O)c1ccccc1)CC2 (configuration not stated)
inactive: dose: 100.0 mg/kg/injection, schedule: Q01DX001 (ip), vehicle: Klucel (hydroxypropylcellulose) (HPC) 100 % of control | dose: 200.0 mg/kg/injection, schedule: Q01DX001 (ip), vehicle: Klucel (hydroxypropylcellulose) (HPC) 96 % of control | dose: 400.0 mg/kg/injection, schedule: Q01DX001 (ip), vehicle: Klucel (hydroxypropylcellulose) (HPC) 100 % of control

CC(=O)c1cccc(NC(=O)Oc2ccc(Cl)cc2Cc2ccccc2)c1
inactive: [7] 101 % of control | [8] 101 % of control | dose: 400.0 mg/kg/injection, schedule: Q01DX009 (ip), vehicle: Klucel (hydroxypropylcellulose) (HPC) 95 % of control

O=C1C(SCCO)=C(SCCO)C(=O)c2[nH]cnc21
inactive: dose: 5.0 mg/kg/injection, schedule: Q01DX001 (ip), vehicle: carboxymethylcellulose (CMC) 100 % of control | dose: 10.0 mg/kg/injection, schedule: Q01DX001 (ip), vehicle: carboxymethylcellulose (CMC) 101 % of control | dose: 20.0 mg/kg/injection, schedule: Q01DX001 (ip), vehicle: carboxymethylcellulose (CMC) 100 % of control | dose: 40.0 mg/kg/injection, schedule: Q01DX001 (ip), vehicle: carboxymethylcellulose (CMC) 104 % of control

CC(C)OC(=O)Nc1cccc(Cl)c1
inactive: dose: 50.0 mg/kg/injection, schedule: Q01DX009 (ip), vehicle: saline sonified 100 % of control | dose: 100.0 mg/kg/injection, schedule: Q01DX009 (ip), vehicle: saline sonified 101 % of control | dose: 100.0 mg/kg/injection, schedule: Q04DX003 (ip), vehicle: saline sonified 87 % of control | dose: 200.0 mg/kg/injection, schedule: Q01DX009 (ip), vehicle: saline sonified 99 % of control | dose: 200.0 mg/kg/injection, schedule: Q04DX003 (ip), vehicle: saline sonified 94 % of control | dose: 400.0 mg/kg/injection, schedule: Q04DX003 (ip), vehicle: saline sonified 94 % of control

O=[N+]([O-])c1ccc(/C=N/N2CCN(/N=C/c3ccc([N+](=O)[O-])cc3)CC2)cc1
inactive: [12] 96 % of control | [13] 92 % of control | [14] 92 % of control

Cc1c2c([nH]c(=O)c1C)C=CC(Br)C2Br (configuration not stated)
inactive: [21] 93 % of control | [22] 101 % of control | [23] 98 % of control
